According to article PMC12956279 (2026):

Columns and labels:
Assay in all cases: fluorescence titration (light-up), quadratic fit
Settings in all cases: 100 mM KCl, 1 mM MgCl2; 40 mM HEPES pH 7.4 (7.5 in Results), room temperature; 1 µM dye, DNA varied
[1] = tested on: 11LE (11LE-v4) (DNA, aptamer) TCCTTCGCACAGCACACCTGCCGTATAGCTCTGAATCAAGGATTTTAGGGAGGCGATGGTGTCTTAGTAGGGATGATGCGGCAGTGGGCTTCGCAGAACAGTGTTTATTCTGCGAGGGGACTAAGACTCCTCCTCCTGCC
[2] = tested on: 4LE-v4 (DNA, aptamer) TCCTTCGCACAGCACACCTGCCGTATAGCTCTGAATCAAGGATTTTAGGGAGGCGATTAGTAGGGATGATGCGGCAGTGGGCTTCGCAGAACAGTGTTTATTCTGCGAGGGGACTATCCTCCTGCC
[3] = tested on: 8LE-v4 (DNA, aptamer) TCCTTCGCACAGCACACCTGCCGTATAGCTCTGAATCAAGGATTTTAGGGAGGCGATGTCTTAGTAGGGATGATGCGGCAGTGGGCTTCGCAGAACAGTGTTTATTCTGCGAGGGGACTAAGACTCCTCCTGCC
[4] = tested on: FLE (FLE-v4) (DNA, aptamer) TCCTTCGCACAGCACACCTGCCGTATAGCTCTGAATCAAGGATTTTAGGGAGGCGATAACGTGCTCAAGGTGTCTTAGTAGGGATGATGCGGCAGTGGGCTTCGCAGAACAGTGTTTATTCTGCGAGGGGACTAAGACTCCTTCAGCAAGTTAAGCTCCTCCTGCC

With `CC1=N/C(=C\c2cc(F)c(O)c(F)c2)C(=O)N1CC(F)(F)F` the KD [1] was 0.01 (0.01, 0.07, 95% CI) µM, the KD [2] was 6 (4.93, 7.18, 95% CI) µM and the KD [3] was 0.04 (0.01, 0.12, 95% CI) µM. For the same compound, the KD [4] was 0.07 (0.01, 0.16, 95% CI) µM.
